Results taken from patent US9307763B2, “Ligands for odor receptors and olfactory neurons” (The Regents of the University of California, priority 2010, dated 2016).
Read-outs that look alike come from different tables or passages of the source.

Legend:
CO2 responsive neurons = settings: cited from earlier work
Or59b, ab2A = biological target: T1, Or59b, ab2A (Drosophila melanogaster, UniProt Q9W1P8); experiment: single-sensillum electrophysiology; format: in vivo; settings: odorant at 10^-2
T1 construct: The 9 Ors tested are expressed in well-defined olfactory receptor neurons (ORNs) housed within the large and small basiconic sensilla; from tissue; host or cells: D. melanogaster antenna, ab2A olfactory receptor neuron (in vivo recording)
T1 sequence (Q9W1P8 1-398): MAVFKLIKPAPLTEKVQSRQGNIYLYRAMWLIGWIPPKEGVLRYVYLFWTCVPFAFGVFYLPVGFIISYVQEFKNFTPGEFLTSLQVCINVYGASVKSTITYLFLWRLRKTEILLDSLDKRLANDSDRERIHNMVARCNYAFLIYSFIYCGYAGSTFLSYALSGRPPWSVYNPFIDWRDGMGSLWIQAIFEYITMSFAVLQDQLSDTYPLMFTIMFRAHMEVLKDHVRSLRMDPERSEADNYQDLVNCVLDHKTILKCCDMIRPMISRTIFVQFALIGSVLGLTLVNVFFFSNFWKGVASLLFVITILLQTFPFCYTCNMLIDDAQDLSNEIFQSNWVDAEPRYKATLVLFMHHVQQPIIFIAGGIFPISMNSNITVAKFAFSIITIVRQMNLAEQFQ
T1 sequence (Q9VNB5 1-486 partner): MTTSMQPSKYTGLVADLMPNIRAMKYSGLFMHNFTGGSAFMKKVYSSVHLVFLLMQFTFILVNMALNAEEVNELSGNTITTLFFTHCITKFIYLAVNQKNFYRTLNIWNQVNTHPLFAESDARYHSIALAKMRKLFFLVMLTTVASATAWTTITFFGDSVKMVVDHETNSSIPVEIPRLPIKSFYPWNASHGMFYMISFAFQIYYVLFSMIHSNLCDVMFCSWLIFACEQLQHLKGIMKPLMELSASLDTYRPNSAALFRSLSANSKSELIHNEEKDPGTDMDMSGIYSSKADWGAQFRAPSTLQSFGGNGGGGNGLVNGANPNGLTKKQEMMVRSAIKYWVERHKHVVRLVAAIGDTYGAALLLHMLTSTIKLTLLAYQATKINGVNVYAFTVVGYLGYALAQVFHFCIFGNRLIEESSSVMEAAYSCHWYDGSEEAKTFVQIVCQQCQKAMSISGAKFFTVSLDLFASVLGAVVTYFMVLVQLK
Method: The results of the in silico screen are provocative. However in order to verify whether these predictions were meaningful, functional evidence was obtained. In order to validate the success of the in silico predictions the responses of 9 Odor receptors using single-sensillum electrophysiology directly on the Drosophila melanogaster antenna were analyzed. For each Odor receptor several odorants were tested from the top 500 predicted hits. A sampling of ˜192 novel odorants were tested with ˜11-21 novel odorants tested for each receptor, which were scattered somewhat randomly within the top 500 predictions for each receptor, providing a relatively unbiased set of chemical structures.
To test identified compounds any number of biological assays can be used to measure ORN activity in the presence of a putative ligand/compounds. […] For the purpose of testing each of these volatile compounds the compounds were diluted to ˜10^−2 in paraffin oil or distilled water. The 9 Ors tested are expressed in well-defined olfactory receptor neurons (ORNs) housed within the large and small basiconic sensilla (ab1-ab7) on the antenna. A previously identified diagnostic panel of odorants was used to distinguish individual classes of sensilla (ab1-ab7) and therefore identified the sensilla that contained the target Or expressing ORN. […]

[1] = […], averaged across the top 2 responders of the 4 species

Molecule | Final Activity (CO2 responsive neurons; [1]) | further results
OCCCCCO [1,5-pentanediol] | 0 | –
CCCCCCBr [1-bromohexane] | 3 | –
CCCCCCCl [1-chlorohexane] | 8 | –
C=CC(O)CCCC (centres unmarked) [1-hepten-3-ol] | 0 | –
CCCCCCS [1-hexanethiol] | 3 | –
CCCCCCI [1-iodohexane] | 3 | –
C=CC(O)CCCCC (centres unmarked) [1-octen-3-ol] | −27 | –
CC(=O)C(C)=O [2,3-butanedione] | −99 | –
CCC(=O)C(C)=O [2,3-pentanedione] | −55 | –
Cc1nc(C)c(C)s1 [2,4,5-trimethylthiazole] | 5 | –
Cc1cnc(C)cn1 [2,5-dimethylpyrazine] | 26 | –
Cc1ccc(C)s1 [2,5-dimethylthiophene] | −9 | –
CCCNCCO [2-(propylamino)-ethanol] | −39 | –
CC(=O)c1cccs1 [2-acetylthiophene] | 31 | –
CCc1ncc(C)nc1C [2-ethyl-3,5-dimethylpyrazine] | 8 | –
CCCCCC(C)O (centres unmarked) [2-heptanol] | −39 | –
CCCCC(C)O (centres unmarked) [2-hexanol] | 2 | –
CCCCC(=O)C(C)C [2-methyl-3-heptanone] | −26 | –
Cc1ccccc1O [2-methylphenol] | 24 | –
CCCCCCCC(=O)CC [3-decanone] | 1 | –
CCCCC(O)CC (centres unmarked) [3-heptanol] | −16 | –
CC=C(C)CC [3-methyl-2-pentene] | 5 | –
CCCCCCC(=O)CC [3-nonanone] | 2 | –
CCCCCC(O)CC (centres unmarked) [3-octanol] | −14 | –
CSCCCC=O [4-(methylthio)-1-butanal] | −15 | –

Molecule | Final Activity (CO2 responsive neurons; [1]) | further results
CCCC(=O)CCC [4-heptanone] | 2 | –
CC(=O)CCO [4-hydroxy-2-butanone] | −11 | –
Cc1ccc(O)cc1 [4-methylphenol] | 3 | –
CC(C)=CCCC(C)O (centres unmarked) [6-methyl-5-hepten-2-ol] | 0 | –
CCC/C=C/C=O [(E)2-hexenal] | 0 | –
CC(=O)O [Acetic Acid] | – | Final Activity (CO2 responsive neurons; in vivo): −7
COc1ccccc1 [Anisole] | 6 | –
O=Cc1ccccc1 [Benzaldehyde] | 6 | –
O=C(c1ccccc1)c1ccccc1 [Benzophenone] | 8 | –
C=C(C)C1CC=C(C)C(=O)C1 (centres unmarked) [Carvone] | 4 | –
CC(C)=CCCC(C)CC=O (centres unmarked) [Citronellal] | 8 | –
O=C1CCCCC1 [Cyclohexanone] | 48 | –
CCO [Ethanol] | – | Final Activity (CO2 responsive neurons; in vivo): −16
CCOC(C)=O [Ethyl Acetate] | 8 | –
C=CCc1ccc(OC)c(OC)c1 [Eugenol Methyl Ether] | −9 | –
C=CCc1ccc(O)c(OC)c1 [Eugenol] | 1 | –
CC12CCC(C1)C(C)(C)C2=O (centres unmarked) [Fenchone] | −2 | –
CC(C)=CCC/C(C)=C/CO [Geraniol] | 8 | –
c1ccc2[nH]ccc2c1 [Indole] | 21 | –
CC(=O)OCCC(C)C [Isoamyl Acetate] | −2 | –
CC(C)O [Isopropyl Alcohol] | 3 | –
C=C(C)[C@H]1CC=C(C)CC1 [Limonene] | −2 | –
CC1CCC(C(C)C)C(O)C1 (centres unmarked) [Menthol] | −2 | –
CO [Methanol] | −14 | –
CSCCC=O [Methional] | 0 | –

Molecule | Final Activity (CO2 responsive neurons; [1]) | further results
CCCCCCCCCO [Nonanol] | −12 | –
CC(=O)c1ccccc1 [Phenylethanone] | 5 | –
Cc1ccc(C(C)C)c(O)c1 [Thymol] | 15 | –
CC(=O)c1ccccc1 [acetophenone] | 15 | –
CCCC=O [butanal] | −85 | –
CCC(C)=O [butanone] | −25 | –
CCCCOC(C)=O [butyl acetate] | – | Final Activity (CO2 responsive neurons; in vivo): −28
CCCC(=O)O [butyric acid] | −94 | –
CCCC(=O)Cl [butyryl chloride] | −39 | –
C/C=C\CCC [cis-2-hexene] | 5 | –
CC/C=C\CCO [cis-3-hexen-1-ol] | 10 | –
CCCCC(=O)OCC [ethyl valerate] | 5 | –
CC(=O)CF [fluoroacetone] | 10 | –
CC1CCC(=O)O1 (centres unmarked) [gamma-valerolactone] | −5 | –
CCCCCCC=O [heptanal] | −21 | –
CCCCCCC [heptane] | −29 | –
CCCCCCC(=O)O [heptanoic acid] | −14 | –
CCCCCCCO [heptanol] | −38 | –
CCCCCCCOC(C)=O [heptyl acetate] | −8 | –
CCCCCC=O [hexanal] | −32 | –
CCCCCC [hexane] | – | Final Activity (CO2 responsive neurons; in vivo): −25
CCCCCC(=O)O [hexanoic acid] | −16 | –
CCCCCCO [hexanol] | −70 | –
CCCCCCOC(C)=O [hexyl acetate] | −12 | –
CCCCCC[SiH3] [hexylsilane] | 3 | –

Molecule | Final Activity (CO2 responsive neurons; [1]) | further results
CC(=O)OC(C)C [isopropyl acetate] | – | activation of odor receptor (firing rate) (Or59b, ab2A): > 250 spikes/sec
COCC(C)=O [methoxyacetone] | 6 | –
COC(=O)C(C)=O [methyl pyruvate] | −100 | –
c1ccc2ccccc2c1 [naphthalene] | −14 | –
CCCCCCCC=O [octanal] | −20 | –
CCCCCCCC [octane] | −34 | –
CCCCCCCC(=O)O [octanoic acid] | −21 | –
CCCCCCCCO [octanol] | −35 | –
CCCCCCCCOC(C)=O [octyl acetate] | −15 | –
CCCCC=O [pentanal] | −51 | –
CCCCC [pentane] | −31 | –
CCCCC(=O)O [pentanoic acid] | −26 | –
CCCCCO [pentanol] | −41 | –
CCCCCOC(C)=O [pentyl acetate] | −15 | –
O=CCc1ccccc1 [phenylacetaldehyde] | 3 | –
CCC=O [propionaldehyde] | −68 | –
CCC(=O)O [propionic acid] | −32 | –
CCC(=O)Cl [propionyl chloride] | −73 | –
c1cnccn1 [pyrazine] | −8 | –
c1ccncc1 [pyridine] | – | Final Activity (CO2 responsive neurons; in vivo): 99
CC(=O)C(=O)O [pyruvic acid] | 2 | –
c1cscn1 [thiazole] | 100 | –
butanol | – | Final Activity (CO2 responsive neurons; in vivo): −25
